Data published in patent US8796299B2, “NK1 antagonists” (OPKO Health, Inc., priority 2001, dated 2014).

Target: NK1 receptor (Homo sapiens, UniProt P25103)
Experiment: NK1 receptor binding: inhibition of Substance P binding, Ki from the 50% inhibition concentration
Details: average Ki for the NK1 receptor
Excerpt: Compounds having the formula (I) can be effective antagonists of the NK1 receptor, and of an effect of its endogenous agonist, Substance P, at the NK1 receptor site, and therefore, can be useful in treating conditions caused or aggravated by the activity of said receptor. The in vitro and in vivo NK1, NK2 and NK3 activities of the compounds having the formula (I) can be determined by various procedures known in the art, such as a test for their ability to inhibit the activity of the NK1 agonist Substance P. The percent inhibition of neurokinin agonist activity is the difference between the percent of maximum specific binding (“MSB”) and 100%. The percent of MSB is defined by the following equation, wherein “dpm” represents “disintegrations per minute”:
[formula] The concentration at which the compound produces 50% inhibition of binding is then used to determine an inhibition constant (“Ki”) using the Chang-Prusoff equation.
The activities (potencies) for the compounds of the invention are determined by measuring their Ki values. […] Even more preferred are compounds having average Ki values of from 0.01 nM to about 10 nM for the NK1 receptor. The most preferred compounds have NK1 average Ki values of from 0.01 nM to about 3 nM.

Sequence of NK1 receptor (P25103 whole entry, species assumed): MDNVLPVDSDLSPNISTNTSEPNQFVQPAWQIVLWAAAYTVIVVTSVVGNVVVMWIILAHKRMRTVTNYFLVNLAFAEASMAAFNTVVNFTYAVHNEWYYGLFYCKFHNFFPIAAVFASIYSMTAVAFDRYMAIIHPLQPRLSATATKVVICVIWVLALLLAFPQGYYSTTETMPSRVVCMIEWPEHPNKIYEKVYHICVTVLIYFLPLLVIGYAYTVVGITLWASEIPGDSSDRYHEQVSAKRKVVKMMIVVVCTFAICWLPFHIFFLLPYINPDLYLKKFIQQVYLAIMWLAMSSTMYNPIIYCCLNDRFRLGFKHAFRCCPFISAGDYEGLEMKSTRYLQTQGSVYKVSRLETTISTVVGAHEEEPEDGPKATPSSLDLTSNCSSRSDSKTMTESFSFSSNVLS

Ki [nM] | SMILES
0.38 | C[C@@H](OC[C@@]1(c2ccccc2)CC[C@]2(CCOC(=O)N2)CN1)c1cc(C(F)(F)F)cc(C(F)(F)F)c1 [Example 111a]
0.66 | C[C@@H](OC[C@@]1(c2ccccc2)CC[C@]2(CCC(=O)N2)CN1)c1cc(C(F)(F)F)cc(C(F)(F)F)c1 [Example 72a]
0.2 | C[C@@H](OC[C@@]1(c2ccccc2)CC[C@@]2(CN1)COC(=O)N2)c1cc(C(F)(F)F)cc(C(F)(F)F)c1 [Example 73b]

The remaining lines, values behind:

SMILES | Ki [nM]
C[C@@H](OC[C@@]1(c2ccccc2)CC[C@]2(CN1)NC(=O)NC2=O)c1cc(C(F)(F)F)cc(C(F)(F)F)c1 [Example 43b] | 0.77
C[C@@H](OC[C@@]1(c2ccccc2)CC[C@H](n2cn[nH]c2=O)CN1)c1cc(C(F)(F)F)cc(C(F)(F)F)c1 [Example 109] | 0.1
C[C@@H](OC[C@@]1(c2ccccc2)CC[C@]2(CCCC(=O)N2)CN1)c1cc(C(F)(F)F)cc(C(F)(F)F)c1 [Example 110a] | 0.41
